Tests used:
[1] = system: CCK-8 induced contraction of guinea pig gall bladder; test: Anti-CCK activity on gall bladder strips in vitro; conditions: CCK-8 10 ng/ml
Protocol: ANTI-CCK ACTIVITY ON GUINEA PIG GALL BALDDERS IN VITRO
A longitudinal strip of guinea pig gall bladder was placed in a bath of isolated members in the presence of Krebs at a temperature of 32° C. with continuous oxygenation with an oxygen-CO2 mixture (95-5V/V).
The isometric contractions were detected by means of a force transducer and recorded.
The gall bladder was made to contract with the use of a 10 ng/ml concentration of CCK-8; the antagonistic activity of the compounds of the invention on the contracting effect of the CCK was determined with the use of different concentrations and the ED 50 value, that is the concentration in μg/ml of a compound which could antagonise 50% of the contracting effect of the CCK, was determined.

morphine analgesia = test: Increase in analgesia of morphine, Tail Flick Test (Experiment 1); assay type: in vivo, rats; conditions: for percentage variation of latency of pain sensation / M (10-90) ± SE, mean percentage variation of latency: compound 10 mg/kg i.p. + morphine 2 mg/kg; for M (10-90) ± SE, mean percentage variation of latency: mean 10-90 min; for Power ratio with respect to morphine alone: rat, in vivo
Protocol: Experiment No: 1 Increase in analgesia of analgesic-narcotic drugs in rats by the Tail Flick Test
The method is that described by Harris et al. (J. Pharmacol. Exp. Ther. 143 (1964) 141-148).
Male rats are used having a weight of about 150-200 g which have not fasted. A point on the tail is chosen and irradiated by a heat source (75° C.) and the time (in seconds) for which the animal remains without moving its tail is measured.
A maximum period of time of 8 seconds under the heat source is chosen, after which the animal is, in any case, removed to avoid tissue damage. The measurement is effected before (controls) and after treatment with the drugs.
The percentage variation is calculated for each individual animal by the following formula: [formula] The measurements were carried out 10, 20, 30, 45, 60 and 90 minutes after treatment with the analgesics.

[2] = system: activity of analgesic drugs; test: Hot-plate test, potentiation of analgesic drugs (Experiment 2); assay type: in vivo, rats
Protocol: Experiment No. 2: Hot-plate test
The method is that described by Eddy et al. (J. Pharmac. Exp. Ther. 107, 385 (1953)).
Groups of five male rats having a weight of about 150 g, and which have not fasted, are used.
The animals are placed on a metal plate on the bottom of a transparent cylinder, which is heated to 55°±1° C. by an azeotropic boiling mixture (acetone-ethyl formate 1:1).
The reaction time is defined as the interval which passes between the moment at which the animal is placed on the hot-plate and the moment at which it either licks its feet or tries to jump out of the cylinder. The control reaction time is measured 10 and 5 minutes before administration of the drugs and 10, 20, 30, 45, 60 and 90 minutes afterwards. The animals are left on the plate for a maximum period of 30 seconds.
The response to the administration of the product is considered positive if at least a doubling of the normal reaction time is seen. The results obtained are given in Tables 2a and 2b which record the groups treated, the doses administered and the stay times on the plate expressed as the number of positive responses over the number treated.

| SMILES | ED50 (concentration antagonising 50% of contracting effect of CCK-8) [1] [µg/mL] | percentage variation of latency of pain sensation (morphine analgesia; 10') [%] | percentage variation of latency of pain sensation (morphine analgesia; 20') [%] | percentage variation of latency of pain sensation (morphine analgesia; 30') [%] | percentage variation of latency of pain sensation (morphine analgesia; 45') [%] | percentage variation of latency of pain sensation (morphine analgesia; 60') [%] | percentage variation of latency of pain sensation (morphine analgesia; 90') [%] | M (10-90) ± SE, mean percentage variation of latency (morphine analgesia) [%] | Power ratio with respect to morphine alone (morphine analgesia) | other results |
| --- | --- | --- | --- | --- | --- | --- | --- | --- | --- | --- |
| CCCN(CCC)C(=O)C(CCC(=O)O)NC(=O)c1ccc(I)cc1 (centres unmarked) [Compound C-18] | 60.3 | 48.9 ± 31.0 | 65.9 ± 24.0 | 80.1 ± 9.0 | 59.1 ± 20.0 | 33.5 ± 20.0 | 81.4 ± 12.0 | 58.1 | 1.95 |  |
| CCCCNC(=O)C(CCC(=O)O)NC(=O)c1cccc(C#N)c1 (centres unmarked) [Compound C-21] | > 200 | 48.6 ± 19.0 | 37.4 ± 12.0 | 54.8 ± 19.0 | 44.6 ± 15.0 | 64.0 ± 18.0 | 54.9 ± 10.0 | 50.7 | 1.70 |  |
| CCCN(CCC)C(=O)C(CCC(=O)O)NC(=O)c1ccc(C)cc1C (centres unmarked) [Compound C-32] | > 300 | 21.8 ± 5 | 58.6 ± 17 | 83.5 ± 10 | 89.8 ± 8 | 78.4 ± 13 | 52.2 ± 22 | 64.0 ± 25 | 2.15 |  |
| CCCCN(CCCC)C(=O)C(CCC(=O)O)NC(=O)c1ccc(C)c(C)c1 (centres unmarked) [Compound C-54] | 1.2 | 77.0 ± 10 | 89.1 ± 11 | 100 ± 0 | 99.2 ± 0.8 | 69.6 ± 16 | 63.2 ± 19 | 83.0 ± 15 | 2.78 |  |
| CCCN(CCC)C(=O)C(CCC(=O)O)NC(=O)c1ccc(Cl)cc1 (centres unmarked) [Compound C-3] | 34.4 | 44.4 | 83.7 ± 16.3 | 77.8 ± 17.1 | 46.4 ± 24.5 | 73.6 ± 17.7 | 45.8 ± 22.8 | 61.9 ± 18.2 | 2.10 |  |
| CCc1ccc(C(=O)NC(CCC(=O)O)C(=O)NC2CCCCC2)cc1 (centres unmarked) [Compound C-48] | 119.1 | 42.1 ± 14 | 59.5 ± 8 | 50.1 ± 21 | 78.4 | 43.7 ± 30 | 44.9 ± 18 | 53.1 ± 14 | 1.78 |  |
| CCCCC1C(=O)N(c2ccccc2)N(c2ccc(O)cc2)C1=O (centres unmarked) [Oxyphenylbutazone, reference compound] |  |  |  |  |  |  |  |  |  | TOTAL positives ([2]; oxyphenylbutazone 50 mg/kg i.p. alone): 7 x/30; positive responses over number treated ([2]; oxyphenylbutazone 50 mg/kg i.p. alone, 10'): 2/5; positive responses over number treated ([2]; oxyphenylbutazone 50 mg/kg i.p. alone, 20'): 1/5; positive responses over number treated ([2]; oxyphenylbutazone 50 mg/kg i.p. alone, 30'): 2/5; positive responses over number treated ([2]; oxyphenylbutazone 50 mg/kg i.p. alone, 45'): 2/5; positive responses over number treated ([2]; oxyphenylbutazone 50 mg/kg i.p. alone, 60'): 0/5; positive responses over number treated ([2]; oxyphenylbutazone 50 mg/kg i.p. alone, 90'): 0/5 |
| CCC(=O)C(CC(C)N(C)C)(c1ccccc1)c1ccccc1 (centres unmarked) [Methadone, reference compound] |  |  |  |  |  |  |  |  |  | TOTAL positives ([2]; methadone 1 mg/kg i.p. alone): 8 X/30; positive responses over number treated ([2]; methadone 1 mg/kg i.p. alone, 10'): 1/5; positive responses over number treated ([2]; methadone 1 mg/kg i.p. alone, 20'): 2/5; positive responses over number treated ([2]; methadone 1 mg/kg i.p. alone, 30'): 1/5; positive responses over number treated ([2]; methadone 1 mg/kg i.p. alone, 45'): 2/5; positive responses over number treated ([2]; methadone 1 mg/kg i.p. alone, 60'): 1/5; positive responses over number treated ([2]; methadone 1 mg/kg i.p. alone, 90'): 1/5 |
